For the test, the target named is T1, GABA A receptor α5β3γ2 (hα5) (Homo sapiens, UniProt P18507+P31644).
T1 construct: expressed in transfected cells; host or cells: HEK293 (transiently transfected; membranes)
The test can be described thus: [3H]flumazenil competition binding assay, human GABA A α5 receptor. Particulars: displacement of [3H]flumazenil (0.5 nM) from HEK293 cell membranes expressing α5β3γ2; means of two determinations. The protocol: Membrane Preparation and Binding Assay
The affinity of compounds at GABA A receptor subtypes was measured by competition for [3H]flumazenil (85 Ci/mmol; Roche) binding to HEK293 cells expressing rat (stably transfected) or human (transiently transfected) receptors of composition α1β3γ2, α2β3γ2, α3β3γ2 and α5β3γ2.
Cell pellets were suspended in Krebs-tris buffer (4.8 mM KCl, 1.2 mM CaCl2, 1.2 mM MgCl2, 120 mM NaCl, 15 mM Tris; pH 7.5; binding assay buffer), homogenized by polytron for ca. 20 sec on ice and centrifuged for 60 min at 4° C. (50000 g; Sorvall, rotor: SM24=20000 rpm). The cell pellets were resuspended in Krebs-tris buffer and homogenized by polytron for ca. 15 sec on ice. Protein was measured (Bradford method, Bio-Rad) and aliquots of 1 mL were prepared and stored at −80° C.
Radioligand binding assays were carried out in a volume of […] (96-well plates) which contained […] of cell membranes, [3H]flumazenil at a concentration of 1 nM for α1, α2, α3 subunits and 0.5 nM for α5 subunits and the test compound in the range of […]. Nonspecific binding was defined by 10^−5 M diazepam and typically represented less than 5% of the total binding. Assays were incubated to equilibrium for 1 hour at 4° C. and harvested onto GF/C uni-filters (Packard) by filtration using a Packard harvester and washing with ice-cold wash buffer (50 mM Tris; pH 7.5). After drying, filter-retained radioactivity was detected by liquid scintillation counting. Ki values were calculated using Excel-Fit (Microsoft) and are the means of two determinations.

As to `FC(F)(F)c1onc(-c2ccccc2)c1-c1cn(-c2ccccc2)cn1` [Example 1, 3-Phenyl-4-(1-phenyl-1H-imidazol-4-yl)-5-trifluoromethyl-isoxazole], the affinity corresponds to a Ki of 53.2 nM.

With `CC(=O)c1ccc(-n2cnc(-c3c(-c4ccccc4)noc3C(F)(F)F)c2)cc1` [Example 3, 1-{4-[4-(3-Phenyl-5-trifluoromethyl-isoxazol-4-yl)-imidazol-1-yl]-phenyl}-ethanone], the Ki amounted to 12.5 nM.

The molecule `FC(F)(F)c1ccc(-n2cnc(-c3c(-c4ccccc4)noc3C(F)(F)F)c2)cc1` [Example 4, 3-Phenyl-5-trifluoromethyl-4-[1-(4-trifluoromethyl-phenyl)-1H-imidazol-4-yl]-isoxazole] returned a Ki of 39.7 nM. The molecule `N#Cc1ccc(-n2cnc(-c3c(-c4ccccc4)noc3C(F)(F)F)c2)cc1` [Example 5, 4-[4-(3-Phenyl-5-trifluoromethyl-isoxazol-4-yl)-imidazol-1-yl]-benzonitrile] registered a Ki of 41.2 nM. The molecule `O=[N+]([O-])c1ccc(-n2cnc(-c3c(-c4ccccc4)noc3C(F)(F)F)c2)cc1` [Example 7, 4-[1-(4-Nitro-phenyl)-1H-imidazol-4-yl]-3-phenyl-5-trifluoromethyl-isoxazole] displayed a Ki of 19.7 nM. `Cc1ccc(-n2cnc(-c3c(-c4ccccc4)noc3C(F)(F)F)c2)cc1` [Example 8, 3-Phenyl-4-(1-p-tolyl-1H-imidazol-4-yl)-5-trifluoromethyl-isoxazole] gave an inhibition constant (Ki) of 84.2 nM.

On to `COc1ccc(-n2cnc(-c3c(-c4ccccc4)noc3C(F)(F)F)c2)cc1` [Example 9, 4-[1-(4-Methoxy-phenyl)-1H-imidazol-4-yl]-3-phenyl-5-trifluoromethyl-isoxazole], for which the Ki worked out at 46.1 nM. Molecule `O=C(NCC1CC1)c1ccc(-n2cnc(-c3c(-c4ccccc4)noc3C(F)(F)F)c2)cc1` [Example 10, N-Cyclopropylmethyl-4-[4-(3-phenyl-5-trifluoromethyl-isoxazol-4-yl)-imidazol-1-yl]-benzamide] came in with a Ki of 23.6 nM. On to `O=C(NCC(F)(F)F)c1ccc(-n2cnc(-c3c(-c4ccccc4)noc3C(F)(F)F)c2)cc1` [Example 11, 4-[4-(3-Phenyl-5-trifluoromethyl-isoxazol-4-yl)-imidazol-1-yl]-N-(2,2,2-trifluoro-ethyl)-benzamide], for which the affinity, expressed as Ki, was 17.6 nM. This Ki and that of the molecule before are within 1.5-fold of each other. `O=C(NC1CC1)c1ccc(-n2cnc(-c3c(-c4ccccc4)noc3C(F)(F)F)c2)cc1` [Example 12, N-Cyclopropyl-4-[4-(3-phenyl-5-trifluoromethyl-isoxazol-4-yl)-imidazol-1-yl]-benzamide] registered a Ki of 11.7 nM.

As for `O=C(NC1CCOCC1)c1ccc(-n2cnc(-c3c(-c4ccccc4)noc3C(F)(F)F)c2)cc1` [Example 13, 4-[4-(3-Phenyl-5-trifluoromethyl-isoxazol-4-yl)-imidazol-1-yl]-N-(tetrahydro-pyran-4-yl)-benzamide], the Ki was found to be 41.2 nM. `COC(=O)c1ccc(-n2cnc(-c3c(-c4ccccc4)noc3C(F)(F)F)c2)nc1` [Example 17, 6-[4-(3-Phenyl-5-trifluoromethyl-isoxazol-4-yl)-imidazol-1-yl]-nicotinic acid methyl ester] registered a Ki of 31.5 nM. `O=C(c1ccc(-n2cnc(-c3c(-c4ccccc4)noc3C(F)(F)F)c2)nc1)N1CCSCC1` [Example 23, {6-[4-(3-Phenyl-5-trifluoromethyl-isoxazol-4-yl)-imidazol-1-yl]-pyridin-3-yl}-thiomorpholin-4-yl-methanone] registered a Ki of 91.1 nM. In turn, `COC(=O)c1ccc(-n2cnc(-c3c(-c4ccc(F)cc4)noc3C(F)(F)F)c2)cc1` [Example 27, 4-{4-[3-(4-Fluoro-phenyl)-5-trifluoromethyl-isoxazol-4-yl]-imidazol-1-yl}-benzoic acid methyl ester] showed a Ki of 22.1 nM. `O=C(O)c1ccc(-n2cnc(-c3c(-c4ccc(F)cc4)noc3C(F)(F)F)c2)cc1` [Example 28, 4-{4-[3-(4-Fluoro-phenyl)-5-trifluoromethyl-isoxazol-4-yl]-imidazol-1-yl}-benzoic acid] showed a Ki of 76.7 nM.

In turn, `CC(C)(O)c1ccc(-n2cnc(-c3c(-c4ccc(F)cc4)noc3C(F)(F)F)c2)cc1` [Example 29, 2-(4-{4-[3-(4-Fluoro-phenyl)-5-trifluoromethyl-isoxazol-4-yl]-imidazol-1-yl}-phenyl)-propan-2-ol] returned a Ki of 28.4 nM. The molecule `NC(=O)c1ccc(-n2cnc(-c3c(-c4ccc(F)cc4)noc3C(F)(F)F)c2)cc1` [Example 31, 4-{4-[3-(4-Fluoro-phenyl)-5-trifluoromethyl-isoxazol-4-yl]-imidazol-1-yl}-benzamide] had a Ki of 17.1 nM. Against the preceding molecule, the Ki is about 1.7-fold lower. In turn, `O=C(c1ccc(-n2cnc(-c3c(-c4ccc(F)cc4)noc3C(F)(F)F)c2)cc1)N1CCS(=O)(=O)CC1` [Example 35, (1,1-Dioxo-1λ6-thiomorpholin-4-yl)-(4-{4-[3-(4-fluoro-phenyl)-5-trifluoromethyl-isoxazol-4-yl]-imidazol-1-yl}-phenyl)-methanone] gave a Ki of 87.4 nM. As for `CC(=O)c1ccc(-n2cnc(-c3c(-c4ccc(F)cc4)noc3C(F)(F)F)c2)nc1` [Example 36, 1-(6-{4-[3-(4-Fluoro-phenyl)-5-trifluoromethyl-isoxazol-4-yl]-imidazol-1-yl}-pyridin-3-yl)-ethanone], the Ki stood at 17.2 nM. `N#Cc1ccc(-n2cnc(-c3c(-c4ccc(F)cc4)noc3C(F)(F)F)c2)nc1` [Example 37, 6-{4-[3-(4-Fluoro-phenyl)-5-trifluoromethyl-isoxazol-4-yl]-imidazol-1-yl}-nicotinonitrile] returned a Ki of 32.3 nM. Molecule `O=C(NCC(F)(F)F)c1ccc(-n2cnc(-c3c(-c4ccc(F)cc4)noc3C(F)(F)F)c2)nc1` [Example 39, 6-{4-[3-(4-Fluoro-phenyl)-5-trifluoromethyl-isoxazol-4-yl]-imidazol-1-yl}-N-(2,2,2-trifluoro-ethyl)-nicotinamide] showed a Ki of 4.9 nM. The result for `O=C(NC1CC1)c1ccc(-n2cnc(-c3c(-c4ccc(F)cc4)noc3C(F)(F)F)c2)nc1` [Example 40, N-Cyclopropyl-6-{4-[3-(4-fluoro-phenyl)-5-trifluoromethyl-isoxazol-4-yl]-imidazol-1-yl}-nicotinamide] reads 4.1 nM; that for `CC(C)(O)c1ccc(-n2cnc(-c3c(-c4ccc(F)cc4)noc3C(F)(F)F)c2)nc1` [Example 43, 2-(6-{4-[3-(4-Fluoro-phenyl)-5-trifluoromethyl-isoxazol-4-yl]-imidazol-1-yl}-pyridin-3-yl)-propan-2-ol], 38.2 nM; that for `O=[N+]([O-])c1ccc(-n2cnc(-c3c(-c4ccc(Cl)cc4)noc3C(F)(F)F)c2)cc1` [Example 47, 3-(4-Chloro-phenyl)-4-[1-(4-nitro-phenyl)-1H-imidazol-4-yl]-5-trifluoromethyl-isoxazole], 58.6 nM. The molecule `O=C(NC1CCOCC1)c1ccc(-n2cnc(-c3c(-c4ccc(Cl)cc4)noc3C(F)(F)F)c2)nc1` [Example 51, 6-{4-[3-(4-Chloro-phenyl)-5-trifluoromethyl-isoxazol-4-yl]-imidazol-1-yl}-N-(tetrahydro-pyran-4-yl)-nicotinamide] gave a Ki of 8.5 nM.

In turn, `FC(F)(F)c1onc(-c2ccccc2)c1-c1cn(-c2ncccn2)cn1` [Example 54, 2-[4-(3-Phenyl-5-trifluoromethyl-isoxazol-4-yl)-imidazol-1-yl]-pyrimidine] gave a Ki of 73 nM.

`O=C(NC1CC1)c1cnc(-n2cnc(-c3c(-c4ccccc4)noc3C(F)(F)F)c2)cn1` [Example 55, 5-[4-(3-Phenyl-5-trifluoromethyl-isoxazol-4-yl)-imidazol-1-yl]-pyrazine-2-carboxylic acid cyclopropylamide] gave a Ki of 14.1 nM.

The values are drawn from patent publication US7851469B2, “Isoxazole-imidazole derivatives” (Hoffmann-La Roche Inc., priority 2007, dated 2010).
